Data on seven compounds can be found in article PMC2869246 (Antiviral research, 2010).

A word on the EC50: it is the midpoint of the concentration-response curve. A lower EC50 goes with an effect from little substance. As usually defined, the EC90 is the concentration at which the effect reaches the 90% level. As a reminder, the CC50 is the concentration giving 50% cytotoxicity. Lower therefore signals greater toxicity to the cells.

For data set [1] the following is noted: ref Reddy et al., 2008; cited from earlier work.
Data set [2] relates to HBV. The experiment in a line: HBV antiviral assay in HepG2.2.15 cells. The class given is cell-based, hepatitis B virus. The conditions noted are these: for effect of addition of 10uM mevalonate on anti-HBV effect: 10uM mevalonate added.
Data set [3] can be described thus: Cytotoxicity by neutral red dye uptake in HepG2.2.15 cultures. The conditions noted are these: human, HepG2.2.15 cells. Format: cell-based.
For the next data set, the system named is HepG2.2.15. The data set is described as above. The class given is cell-based. As to conditions: Table 2; monotherapy; neutral red uptake 24 hours after last treatment.
Data set [4] relates to HBV. The conditions noted are these: cited from earlier work; for anti-HBV activity: unpublished results.
In another data set the test system is HBV surface antigen. As to conditions: Hep3B cell line with integrated S gene coding region; ref Lin et al., 2003; cited from earlier work.
[5] abbreviates: Hepatitis B virus, HepG2.2.15, Table 2 (separate experiment), monotherapy.
[6] abbreviates: Table 2 (separate experiment), monotherapy.

Entries after “also recorded” stand apart in the source; their conditions may differ. Where two headings read alike, the source gives them in different places.

`Nc1ncnc2c1ncn2CCOCP(=O)(O)O` [ADV, adefovir]: the liver/serum ratios in data set [1] is 0.38.
Consider `Nc1ccn([C@@H]2CS[C@H](CO)O2)c(=O)n1` [LMV, lamivudine], for which the “effect of addition of 10uM mevalonate on anti-HBV effect” value in the data set on HBV [2] is given as “did not affect the anti-HBV effectiveness; also recorded: nor did it reduce the anti-HBV effectiveness”. In the data set with HBV [2] (setting [5]), a half-maximal effect (EC50) was put at 0.048 ± 0.005 µM and the EC90 came out at 0.146 ± 0.017 µM. Half-maximal cytotoxicity in data set [3] (CC50 at 9 days) was put at 2320 ± 102 µM.
`CC(O)(CCO)CC(=O)O` (stereo not drawn) [Mevalonate]: in the data set on HBV [2] (setting [6]), the EC50 was > 10 µM and the concentration for an effect of 90% (EC90) is > 10 µM. In addition, the anti-HBV effect result in the data set with HBV [2] (monotherapy) is recorded as “did not display an anti-HBV effect”. In addition, in the data set with HepG2.2.15, the CC50 was > 10 µM.
With `CCC(C)(C)C(=O)O[C@H]1C[C@@H](C)C=C2C=C[C@H](C)[C@H](CC[C@@H]3C[C@@H](O)CC(=O)O3)[C@H]21` [SIM, simvastatin], in the data set on HBV [2], the “effect of addition of 10uM mevalonate on anti-HBV effect” value is “abolished the anti-HBV effect; also recorded: abolished the anti-HBV effectiveness”. In addition, in the data set on HBV [2] (setting [5]), it took 2.8 ± 0.3 µM to reach a half-maximal effect (EC50) and it took 8.1 ± 0.7 µM to reach the 90% level (EC90). For the same compound, in the data set with HBV [2] (SIM alone, cell culture), the ED90 was found to be 8.6 µM. The CC50 at 9 days in data set [3] is > 300 µM.
`CC(C)n1c(/C=C/C(O)CC(O)CC(=O)O)c(-c2ccc(F)cc2)c2ccccc21` (stereo not drawn) [fluvastatin]: the anti-HBV activity entry in the data set on HBV [4] (ref Korba) is listed as “unable to make other statins work against HBV”.
As to `CC[C@H](C)C(=O)O[C@H]1C[C@@H](C)C=C2C=C[C@H](C)[C@H](CC[C@@H]3C[C@@H](O)CC(=O)O3)[C@H]21` [lovastatin], the “in vitro production of surface antigen inhibited” value with HBV surface antigen is 60%. Further, the “anti-HBV activity (HBV virions in cell culture)” value in the data set on HBV [4] (ref Lin et al., 2003) is given as “unable to make other statins work against HBV; also recorded: could not demonstrate reduction of HBV virions”.
Consider `CC[C@H](C)C(=O)O[C@H]1C[C@H](O)C=C2C=C[C@H](C)[C@H](CC[C@@H](O)C[C@@H](O)CC(=O)O)[C@H]21` [pravastatin], for which, in the data set with HBV [4] (ref Bader), the anti-HBV activity result is recorded as “unable to make other statins work against HBV”.
